For data set [1] the following is noted: toxic metabolite of paracetamol; cited from earlier work.
Data set [2] is described as follows: Solubility of paracetamol in dilute solutions (absorbance at 240 nm of filtrate). It is filed as physicochemical.
Data set [3] can be described thus: Paracetamol instability in solution and breakdown products. Type of data set: physicochemical. Conditions: in water or in solution no 20.
The nature of data set [4]: pH stability of concentrated paracetamol solution. It is filed as physicochemical. Here is the method: Vials that had been filled under nitrogen atmosphere by dispensing 10 ml of such solutions, tightly stoppered and capped, were sterilized by autoclaving at 121° C. for 20 minutes, and then in every case exposed, either to a temperature of 105° C. in the dark for 72 hours, or to a radiation of an actinic light at 5000° K. and 25° C. during 264 hours.

Data set [5] is described as follows: Predicted time to 5% decrease in paracetamol concentration (Arrhenius law). Type of data set: physicochemical. Conditions: 25° C., optimal pH, aqueous solution; predicted by Arrhenius law.
The conditions of data set [6]: aqueous solution; cited from earlier work.
For data set [7] the following is noted: cited from earlier work.
The nature of data set [8]: HPLC assay of paracetamol and codein before and after autoclaving. Conditions: for assay, after sterilization: 121° C. 20 minutes.
Where [9] appears, read: containing 0.5 mg/ml of cystein hydrochloride.
The mark [10] stands for this setting: no free radical scavenger added.

Structures are written as SMILES.

Take `CC(=O)N=C1C=CC(=O)C=C1` [N-acetyl-p-benzoquinone-imine]: the toxic effect entry in data set [1] is “cytotoxic and hemolytic effect”.
`CC(=O)Nc1ccc(O)cc1` [paracetamol, N-acetyl-p-aminophenol]: the “effect of PEG on paracetamol solubility” value in data set [2] is listed as “increased by the presence of PEG”. Moreover, the “time to color development” value in data set [3] (50° C.) is recorded as 2 weeks. Further, the “color upon exposure to light or storage at high temperature” value in data set [3] is “shows rapidly a pink color”. Also, in data set [4] (pH 7,0 (actual pH 5,8), actinic light, 264 hours), the “Color development upon storage in the presence of light” value is “extremely weak”. Besides, in data set [4] (storage in the presence of light), the “effect of pH on paracetamol content and breakdown products” value is reported as “Neither the paracetamol content, nor the breakdown products are affected by pH”. For the same compound, in data set [5], the “time needed to observe a 5% decrease in paracetamol concentration” value is listed as 19 months. For the same compound, in data set [6], the “pH of minimal breakdown” value is approximately 6. Further, in data set [7] (0.1% aqueous solution, dark, 120 days), the “p-aminophen content from hydrolysis, % of initial paracetamol concentration” value is given as ~19,8%. In addition, the “ammonia yield with EDTA added” value in data set [7] (1000 ppm of ascorbic acid + EDTA (0.0075%)) was not above 14%. Moreover, in data set [7] (1000 ppm of ascorbic acid), the “ammonia yield upon exposure to bright light” value is given as 98%. Besides, the “decomposition rate with EDTA” value in data set [7] (EDTA 0.0075%, 0.1% aqueous solution) was 7%. Moreover, the “ammonia concentration on distilling an alkaline solution” value in data set [7] (in presence or not of 1000 ppm of ascorbic acid) is 14%. Further, in data set [8] (setting [9]), the “assay, non sterilized solution” value worked out at 0.0082 g/mL and the “assay, after sterilization” value is 0.0081 g/mL. Also, in data set [8] (setting [10]), the “assay, non sterilized solution” value came out at 0.0078 g/mL and the “assay, after sterilization” value came out at 0.0077 g/mL.

The values are drawn from patent publication US6028222A (priority 1996, dated 2000).
